Data: PMC9316317, “Reducing the Kidney Uptake of High Contrast CXCR4 PET Imaging Agents via Linker Modifications” (Pharmaceutics, 2022)
Where a SMILES comes first, the peptide text is derived from it. Side-chain parts run from the residue outwards. [ ]: non-standard residue; d: D form. The star is where a group is joined. DOTA = O=C(O)CN1CCN(CC(=O)O)CCN(CC(=O)*)CCN(CC(=O)O)CC1; 2Nal = N[C@@H](Cc1ccc2ccccc2c1)C(=O)O; dNMeOrn = CN[C@H](CCCN)C(=O)O; 4Amb = NCc1ccc(C(=O)O)cc1

Assays:
[1] = Ex vivo biodistribution in Daudi xenograft-bearing mice; conditions: male, NOD.Cg-Rag1tm1Mom Il2rgtm1Wjl/SzJ (NRG), mouse, iv, total radioactivity; for tissue uptake at 2 h: 2 h p.i.
Procedure: (§1) Male NOD.Cg-Rag1tm1Mom Il2rgtm1Wjl/SzJ (NRG) mice were obtained from an in-house breeding colony at the Animal Resource Centre of the BC Cancer Research Centre, Vancouver, Canada. Mice (6–10 weeks old, 25–30 g weight) were subcutaneously inoculated with 5 × 10^6 Daudi cells (100 μL; 1:1 ratio of PBS/Matrigel) on the left flank.
(§2) Additional groups of mice received 7.5 µg (0.25–0.3 mg/kg) LY2510924 as a blocking control i.p. 15 min before radiotracer injection, and euthanized 1 h p.i. Tissues were harvested, washed in PBS, blotted dry, and weighed, and radioactivity was counted on a Hidex AMG Automatic Gamma Counter. The counts were decay corrected, converted to absolute units using a calibration curve, and expressed as percent injected dose per gram of tissue (%ID/g).

[2] = test system: CXCR4-expressing Daudi xenograft mice; assay: as above
Procedure: as §1, §2

[3] = 1 h p.i. blocked with LY2510924, mean

tissue uptake at 1 h ([1]; adrenals, Adrenals uptake, 1 h p.i. blocked with LY2510924, mean): 0.38 %ID/g
tissue uptake at 1 h ([1]; adrenals, Adrenals uptake, 1 h p.i., mean): 0.34 %ID/g
tissue uptake at 2 h ([1]; adrenals, Adrenals uptake, mean): 0.18 %ID/g
tissue uptake at 1 h ([1]; blood, Blood uptake, 1 h p.i. blocked (7.5 µg LY2510924 i.p. 15 min before tracer), mean): 1.23 %ID/g
tissue uptake at 2 h ([1]; blood, Blood uptake, mean): 0.28 ± 0.04 %ID/g
tissue uptake at 1 h ([1]; bone, Bone uptake, 1 h p.i. blocked with LY2510924, mean): 0.27 %ID/g
tissue uptake at 1 h ([1]; bone, Bone uptake, 1 h p.i., mean): 0.18 %ID/g
tissue uptake at 2 h ([1]; bone, Bone uptake, mean): 0.14 %ID/g
tissue uptake at 1 h ([1]; brain, Brain uptake, 1 h p.i. blocked with LY2510924, mean): 0.03 %ID/g
tissue uptake at 1 h ([1]; brain, Brain uptake, 1 h p.i., mean): 0.03 %ID/g
tissue uptake at 2 h ([1]; brain, Brain uptake, mean): 0.01 %ID/g
tissue uptake at 1 h ([1]; fat, Fat uptake, 1 h p.i. blocked with LY2510924, mean): 0.18 %ID/g
tissue uptake at 1 h ([1]; fat, Fat uptake, 1 h p.i., mean): 0.08 %ID/g
tissue uptake at 2 h ([1]; fat, Fat uptake, mean): 0.04 %ID/g
tissue uptake at 1 h ([1]; heart, Heart uptake, 1 h p.i. blocked with LY2510924, mean): 0.47 %ID/g
tissue uptake at 1 h ([1]; heart, Heart uptake, 1 h p.i., mean): 0.36 %ID/g
tissue uptake at 2 h ([1]; heart, Heart uptake, mean): 0.13 %ID/g
tissue uptake at 1 h ([1]; intestine, Intestine uptake, 1 h p.i. blocked with LY2510924, mean): 0.59 %ID/g
tissue uptake at 2 h ([1]; intestine, Intestine uptake, mean): 0.2 %ID/g
tissue uptake at 1 h ([1]; kidney, Kidney uptake, 1 h p.i. blocked with LY2510924, mean): 3.16 %ID/g
tissue uptake at 1 h ([1]; kidney, Kidney uptake, 1 h p.i., mean): 2.78 %ID/g
tissue uptake at 2 h ([1]; kidney, Kidney uptake, mean): 1.76 ± 0.38 %ID/g
tissue uptake at 1 h ([1]; liver, Liver uptake, 1 h p.i. blocked with LY2510924, mean): 1.25 %ID/g
tissue uptake at 1 h ([1]; liver, Liver uptake, 1 h p.i., mean): 1.23 ± 0.15 %ID/g
tissue uptake at 2 h ([1]; liver, Liver uptake, mean): 0.89 ± 0.12 %ID/g
tissue uptake at 1 h ([1]; lung, Lung uptake, 1 h p.i. blocked with LY2510924, mean): 1.39 %ID/g
tissue uptake at 1 h ([1]; lung, Lung uptake, 1 h p.i., mean): 1.16 ± 0.14 %ID/g
tissue uptake at 2 h ([1]; lung, Lung uptake, mean): 0.54 ± 0.08 %ID/g
tissue uptake at 1 h ([1]; muscle, Muscle uptake, 1 h p.i. blocked with LY2510924, mean): 0.26 %ID/g
tissue uptake at 1 h ([1]; muscle, Muscle uptake, 1 h p.i., mean): 0.2 %ID/g
tissue uptake at 2 h ([1]; muscle, Muscle uptake, mean): 0.06 ± 0.02 %ID/g
tissue uptake at 1 h ([1]; pancreas, Pancreas uptake, 1 h p.i. blocked with LY2510924, mean): 0.25 %ID/g
tissue uptake at 1 h ([1]; pancreas, Pancreas uptake, 1 h p.i., mean): 0.21 %ID/g
tissue uptake at 2 h ([1]; pancreas, Pancreas uptake, mean): 0.08 %ID/g
tissue uptake at 1 h ([1]; spleen, Spleen uptake, 1 h p.i. blocked with LY2510924, mean): 0.59 %ID/g
tissue uptake at 1 h ([1]; spleen, Spleen uptake, 1 h p.i., mean): 0.63 %ID/g
tissue uptake at 2 h ([1]; spleen, Spleen uptake, mean): 0.33 %ID/g
tissue uptake at 1 h ([1]; stomach, Stomach uptake, 1 h p.i. blocked with LY2510924, mean): 0.17 %ID/g
tissue uptake at 1 h ([1]; stomach, Stomach uptake, 1 h p.i., mean): 0.13 %ID/g
tissue uptake at 2 h ([1]; stomach, Stomach uptake, mean): 0.05 %ID/g
tissue uptake at 1 h ([1]; testes, Testes uptake, 1 h p.i. blocked with LY2510924, mean): 0.55 %ID/g
tissue uptake at 1 h ([1]; testes, Testes uptake, 1 h p.i., mean): 0.39 %ID/g
tissue uptake at 2 h ([1]; testes, Testes uptake, mean): 0.13 %ID/g
tissue uptake at 1 h ([1]; tumor (Daudi xenograft), Tumor uptake (Daudi xenograft), 1 h p.i. blocked with LY2510924, mean): 0.61 %ID/g
tissue uptake at 1 h ([1]; tumor (Daudi xenograft), Tumor uptake (Daudi xenograft), 1 h p.i., mean): 6.31 ± 1.02 %ID/g
tissue uptake at 2 h ([1]; tumor (Daudi xenograft), Tumor uptake (Daudi xenograft), mean): 5.23 %ID/g
Tumor:Blood ratio [2, 3]: 0.53
Tumor:Bone ratio [2, 3]: 2.67
Tumor:Liver ratio [2, 3]: 0.50
Tumor:Lung ratio [2, 3]: 0.47
Tumor:Muscle ratio [2, 3]: 2.55
Tumor:Spleen ratio [2, 3]: 1.14
Tumor:Blood ratio ([2]; 1 h p.i., mean): 6.53
Tumor:Bone ratio ([2]; 1 h p.i., mean): 35.99
Tumor:Kidney ratio ([2]; 1 h p.i., mean): 2.29 ± 0.38
Tumor:Liver ratio ([2]; 1 h p.i., mean): 5.14
Tumor:Lung ratio ([2]; 1 h p.i., mean): 5.48
Tumor:Muscle ratio ([2]; 1 h p.i., mean): 33.25
Tumor:Spleen ratio ([2]; 1 h p.i., mean): 10.20
Tumor:Blood ratio ([2]; 2 h p.i., mean): 18.94
Tumor:Bone ratio ([2]; 2 h p.i., mean): 43.48
Tumor:Kidney ratio ([2]; 2 h p.i., mean): 3.07 ± 0.54
Tumor:Liver ratio ([2]; 2 h p.i., mean): 5.93
Tumor:Lung ratio ([2]; 2 h p.i., mean): 9.95
Tumor:Muscle ratio ([2]; 2 h p.i., mean): 95.44
Tumor:Spleen ratio ([2]; 2 h p.i., mean): 16.57
SMILES: CN1C(=O)[C@@H](Cc2ccc(O)cc2)NC(=O)CNC(=O)[C@H](Cc2ccc3ccccc3c2)NC(=O)[C@H](CCCNC(=N)N)NC(=O)[C@H]1CCCNC(=O)c1ccc(CNC(=O)CN2CCN(CC(=O)O)CCN(CC(=O)O)CCN(CC(=O)O)CC2)cc1 [[68Ga]Ga-Pentixafor, metal not drawn] (cyclo([dY][dNMeOrn]([4Amb-DOTA])R[2Nal]G))
